Experimental data: patent publication US10723711B2, “1,1,1-trifluoro-3-hydroxypropan-2-yl carbamate derivatives and 1,1,1-trifluoro-4-hydroxybutan-2-yl carbamate derivatives as MAGL inhibitors” (PFIZER INC., priority 2015, dated 2020)
Like-named read-outs stand apart in the source and are kept apart here.

Columns and labels:
Assay type in all cases: biochemical
[1] = target: T1, human recombinant Monoacylglycerol Lipase (Homo sapiens, UniProt Q99685); assay: MAGL inactivation, enzyme progress curves, kinact/KI; conditions: from enzyme progress curves, T = 0 min protocol; geometric mean of 2-4 determinations unless otherwise indicated
T1 sequence (Q99685 1-303): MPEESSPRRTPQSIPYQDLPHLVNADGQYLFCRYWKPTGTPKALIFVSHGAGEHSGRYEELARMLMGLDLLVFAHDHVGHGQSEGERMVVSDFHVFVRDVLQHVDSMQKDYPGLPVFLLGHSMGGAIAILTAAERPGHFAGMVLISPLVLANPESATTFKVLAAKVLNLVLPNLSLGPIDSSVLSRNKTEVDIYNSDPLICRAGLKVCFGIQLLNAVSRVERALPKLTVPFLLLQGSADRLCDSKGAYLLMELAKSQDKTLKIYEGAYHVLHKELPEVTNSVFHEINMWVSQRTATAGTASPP
Method in brief: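 Human recombinant MAGL ([…]) with compound, 7-HCA substrate (final 5 μM) added immediately (T=0 min), in pH 7.4 HEPES buffer with 0.1% Triton X-100 and 25% glycerin. Fluorescence (Ex/Em 340/465) was read every minute over 60 min, giving progress curves at decreasing compound concentrations (final 3 μM to 0.03 nM).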

[2] = target: T1, human recombinant Monoacylglycerol Lipase; assay: MAGL inhibition enzymatic assay, fluorogenic substrate 7-HCA, IC50 at T=0 min or after 30 minute incubation (T=30 min); conditions: geometric mean of 2-4 determinations unless otherwise indicated
Method: An equal volume of 7-HCA in assay buffer with 10% DMSO was added either immediately (T=0 min) or after a 30 minute incubation (T=30 min) to initiate the reaction. […] After these dilutions, the final concentration of the test compound ranged from 3 μM to 0.03 nM. […] IC50 values were generated based on a four parameter fit model using ABASE software from IDBS.

[3] = target: T2, human recombinant FAAH (Homo sapiens, UniProt O00519); assay: FAAH inhibition enzymatic assay, fluorescent substrate Arachidonoyl-AMC, 30 minute incubation; conditions: T = 30 min (30 minute incubation); geometric mean of 2-4 determinations unless otherwise indicated
T2 construct: purchased Cayman 10010183
T2 sequence (O00519 1-579): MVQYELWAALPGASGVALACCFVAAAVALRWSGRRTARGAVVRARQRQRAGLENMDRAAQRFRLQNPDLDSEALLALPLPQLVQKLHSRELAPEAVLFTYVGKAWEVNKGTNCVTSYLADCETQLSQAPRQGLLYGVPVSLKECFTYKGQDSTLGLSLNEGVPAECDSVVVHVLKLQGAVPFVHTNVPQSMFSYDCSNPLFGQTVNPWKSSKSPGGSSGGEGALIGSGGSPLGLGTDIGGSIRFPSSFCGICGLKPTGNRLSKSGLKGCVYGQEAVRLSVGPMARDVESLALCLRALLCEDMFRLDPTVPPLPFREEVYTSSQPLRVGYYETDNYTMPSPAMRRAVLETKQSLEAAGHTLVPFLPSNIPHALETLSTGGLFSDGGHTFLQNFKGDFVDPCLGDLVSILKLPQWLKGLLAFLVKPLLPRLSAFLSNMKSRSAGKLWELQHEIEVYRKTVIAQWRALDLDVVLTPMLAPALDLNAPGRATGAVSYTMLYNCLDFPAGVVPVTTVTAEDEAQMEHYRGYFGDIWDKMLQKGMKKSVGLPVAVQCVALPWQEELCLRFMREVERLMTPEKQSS

[4] = T = 0 min (substrate added immediately), read-out: MAGL (T = 0 min) IC50
[5] = T = 30 min (30 minute incubation), read-out: MAGL (T = 30 min) IC50

| SMILES | MAGL kinact/KI [1] | IC50 [2, 4] | IC50 [2, 5] | IC50 [3] |
| --- | --- | --- | --- | --- |
| O=C(O[C@H](CO)C(F)(F)F)N1CCC2(CC1)CN(S(=O)(=O)c1cccc(F)c1)CCO2 [Example 11, (2R)-1,1,1-Trifluoro-3-hydroxypropan-2-yl 4-[(3-fluorophenyl)sulfonyl]-1-oxa-4,9-diazaspiro[5.5]undecane-9-carboxylate] | 147964 1/s per M | 0.014 µM | 0.001 µM | > 30 µM |
| CCc1cccc(S(=O)(=O)N2CCOC3(CCN(C(=O)O[C@H](CO)C(F)(F)F)CC3)C2)c1 [Example 77] | 403739 1/s per M | 0.005 µM | 0.001 µM | 5.95 µM |
| CN(CC1CCN(C(=O)O[C@H](CO)C(F)(F)F)CC1)S(=O)(=O)c1ccc(F)cc1 [Example 62] | 216 1/s per M | 0.067 µM | 0.007 µM | > 30 µM |
| Cc1ccc(S(=O)(=O)N2CCOC3(CCN(C(=O)O[C@H](CO)C(F)(F)F)CC3)C2)cc1F [Example 73] | 96515 1/s per M | 0.005 µM | 0.001 µM | > 30 µM |
| O=C(O[C@H](CO)C(F)(F)F)N1CCC(Oc2ccc(C3CC3)cn2)CC1 [Example 10, (2R)-1,1,1-Trifluoro-3-hydroxypropan-2-yl 4-[(5-cyclopropylpyridin-2-yl)oxy]piperidine-1-carboxylate] | 5205 1/s per M | 0.077 µM | 0.007 µM | > 30 µM |
| N#Cc1cccc(C2COC3(CCN(C(=O)O[C@H](CO)C(F)(F)F)CC3)C2)c1 (mixture of isomers) [Example 147] | 5973 1/s per M | 0.06 µM | 0.006 µM | > 26.4 µM |
| O=C(O[C@H](CO)C(F)(F)F)N1C[C@@H]2[C@H](C1)[C@H]2c1ccn(-c2ccc(F)cc2)n1 [Example 3, (2R)-1,1,1-Trifluoro-3-hydroxypropan-2-yl (1α,5α,6α)-6-[1-(4-fluorophenyl)-1H-pyrazol-3-yl]-3-azabicyclo[3.1.0]hexane-3-carboxylate] | 20005 1/s per M | 0.035 µM | 0.003 µM | 2.48 µM |
| O=C(O[C@H](CO)C(F)(F)F)N1CCC(Oc2ccc(C(F)(F)F)cn2)CC1 [Example 53] | 6900 1/s per M | 0.053 µM | 0.006 µM | > 30 µM |
| O=C(O[C@H](CO)C(F)(F)F)N1CCC2(CC1)CN(S(=O)(=O)c1ccccc1F)CCO2 [Example 84] | 49166 1/s per M | 0.026 µM | 0.002 µM | 19.2 µM |
| O=C(O[C@H](CO)C(F)(F)F)N1CCC(CNS(=O)(=O)c2ccc(F)cc2)CC1 [Example 47] | 5046 1/s per M | 0.174 µM | 0.017 µM | > 30 µM |
| C#Cc1cccc(S(=O)(=O)N2CCOC3(CCN(C(=O)O[C@H](CO)C(F)(F)F)CC3)C2)c1 [Example 79] | 26513 1/s per M | 0.007 µM | 0.001 µM | 10 µM |
| CC(c1ccc(F)cc1)N1CCOC2(CCN(C(=O)O[C@H](CO)C(F)(F)F)CC2)C1 (mixture of isomers) [Example 43] | 3478 1/s per M | 0.145 µM | 0.013 µM | > 30 µM |

The remaining lines, values ahead:

| MAGL kinact/KI [1] | IC50 [2, 4] | IC50 [2, 5] | IC50 [3] | SMILES |
| --- | --- | --- | --- | --- |
| 6254 1/s per M | 0.139 µM | 0.01 µM | > 25.5 µM | CN(C1COC2(CCN(C(=O)O[C@H](CO)C(F)(F)F)CC2)C1)S(=O)(=O)C1CCC1 (mixture of isomers) [Example 113] |
| 2067 1/s per M | 0.163 µM | 0.017 µM | > 30 µM | O=C(O[C@H](CO)C(F)(F)F)N1CCC2(CC1)CCN(C(=O)C1CCC(F)(F)CC1)C2 [Example 127] |
| 3282 1/s per M | 0.318 µM | 0.029 µM | > 30 µM | CN([C@H]1COC2(CCN(C(=O)O[C@H](CO)C(F)(F)F)CC2)C1)S(=O)(=O)C1CC1 [Example 93, (2R)-1,1,1-Trifluoro-3-hydroxypropan-2-yl (3R)-3-[(cyclopropylsulfonyl)(methyl)amino]-1-oxa-8-azaspiro[4.5]decane-8-carboxylate] |
| 1207 1/s per M | 0.149 µM | 0.02 µM | 14.7 µM | COc1ccc(C2COC3(CCN(C(=O)O[C@H](CO)C(F)(F)F)CC3)C2)nc1 (mixture of isomers) [Example 121] |
| 3614 1/s per M | 0.174 µM | 0.02 µM | 4.75 µM | O=C(O[C@H](CO)C(F)(F)F)N1CCC2(CC1)CCN(C(=O)N1CCCC1)C2 [Example 133] |
| 3723 1/s per M | 0.112 µM | 0.012 µM | > 30 µM | O=C(O[C@H](CO)C(F)(F)F)N1CCC2(CC1)CCN(C(=O)c1ccccc1)C2 [Example 126] |
| 7582 1/s per M | 0.126 µM | 0.011 µM | > 30 µM | CN([C@H]1COC2(CCN(C(=O)O[C@H](CO)C(F)(F)F)CC2)C1)S(=O)(=O)CC(F)(F)F [Example 137] |
| 33483 1/s per M | 0.028 µM | 0.002 µM | > 30 µM | CN(C1COC2(CCN(C(=O)O[C@H](CO)C(F)(F)F)CC2)C1)S(=O)(=O)c1ccc(F)cc1 (single isomer, unassigned) [Example 111] |
